Data on four compounds can be found in patent US20090292025A1, “Novel crystalline forms of armodafinil and preparation thereof” (Teva Pharmaceutical Industries Ltd., priority 2006, published 2009).

The conditions of data set [1]: Prisinzano et al., Tetrahedron: Asymmetry (2004); cited from earlier work.
The nature of data set [2]: Exposure to 100% relative humidity, followed by TGA and XRD. It is filed as physicochemical. The protocol: Another embodiment of the invention encompasses armodafinil monohydrate. Armodafinil monohydrate may be prepared by a method comprising exposing armodafinil Form 1 to 100% relative humidity at a temperature of about 30° C. to about 60° C. for at least 7 days. Preferably, the heating is to a temperature of about 30° C. to about 40° C. In one example 200 mg of armodafinil Form I is heated at 30° C. in 100% relative humidity for 13 days.
X-Ray powder diffraction data were obtained by using methods known in the art. A SCINTAG powder X-ray diffractometer model X′TRA equipped with a solid-state detector was employed with copper radiation of 1.5418 Å and a round aluminum sample holder with zero background. The scanning parameters included: range: 2-40 degrees two-theta; scan mode: continuous scan; step size: 0.05 deg.; and a rate of 5 deg/min. All peak positions are within ±0.2 degrees two theta.
TGA analysis was performed using a Metler M3 thermo gravimeter. Samples of about 8 mg were analyzed in standard 150 μl alumina crucibles covered by lids with 1 hole. Each sample was scanned at a rate of 10° C./min from 25° C. to 200° C. A blank was subtracted from the sample. The oven was constantly purged with nitrogen gas at a flow rate of 40 ml/min.
Armodafinil Form A (200 mg) was exposed to 100% humidity for 7 days at 30° C. The XRD diffractogram of armodafinil Form I is illustrated in FIG. 3.

Data set [3] in a line: Stability of the crystal form under pressure of 2-10 tons (tablet compression). Type of data set: physicochemical. The protocol: Form A is stable by pressure of about 2-10 tons which is used in the compression stage during the tablet preparation.
A further method of preparing armodafinil Form I comprises submitting armodafinil Form IV to a pressure of about 2 tons to about 10 tons to obtain armodafinil Form I. Preferably, the pressure is applied for a period of about 1 minute to about 5 minutes. The time will depend upon the amount of armodafinil Form IV; for example, armodafinil 100 mg of Form IV is pressed with 10 tons for 1 minute.
Armodafinil Form IV (100 mg) was pressed with pressure of 2 tons or 10 tons for 1 min forming a pressed sample.

Data set [4] is described as follows: Grinding with mortar and pestle, XRD of the ground sample. The following applies: 100 mg ground with mortar and pestle for a few minutes. It is filed as physicochemical. The procedure: Another method for preparing armodafinil Form I comprises grinding armodafinil Form IV. Preferably, the grinding is carried out over a period of about 1 minute to about 5 minutes, more preferably, about 1 min. Depending on the amount of armodafinil Form IV, different grinding methods may be used. For example, 200 mg of armodafinil Form IV is ground with a mortar and pestle for 1 minute.
Armodafinil Form IV (100 mg) was ground with mortar and pestle for a few minutes forming a ground sample.

Data set [5] in a line: Heating at 145° C., XRD of the heated sample. The following applies: 200 mg heated at 145° C. for 10 min. It is filed as physicochemical. The protocol:
Armodafinil Form I may also be prepared by drying armodafinil Form IV. Preferably, the process comprises heating armodafinil Form IV to a temperature of about 120° C. to 150° C. for at least about 10 minutes. Preferably, the heating is to a temperature of about 145° C. Preferably, the heating is conducted over a period of about 15 minutes about 30 minutes. For example, armodafinil Form IV 200 mg is heated for about 10 minutes. Form IV may be prepared according to WO 2004/060858.
Armodafinil Form IV (200 mg) was heated at 145° C. for 10 min forming a heated sample.

Where [6] appears, read: Form A exposed to 100% humidity for 7 days at 30° C.
The mark [7] stands for this setting: Form A, Initial (before exposure).
Setting [8] is: Form I exposed to 100% Relative Humidity at 30° C. for 13 days.
The mark [9] stands for this setting: Form I exposed to 100% Relative Humidity at 60° C. for 13 days.
The mark [10] stands for this setting: Form I, Initial (Table 1, 30° C. study).
[11] abbreviates: Form I, Initial (Table 2, 60° C. study).

With `NC(=O)C[S@@+]([O-])C(c1ccccc1)c1ccccc1` (single isomer, unassigned) [S enantiomer], the “Elimination from the body compared with the R enantiomer” value in data set [1] was “three times faster”.

For the compound `NC(=O)C[S@@+]([O-])C(c1ccccc1)c1ccccc1` [Armodafinil Form A, 2-[(R)-(diphenylmethyl)sulfinyl]acetamide], in data set [2] (setting [6]), the “% Weight loss (by TGA)” value is listed as 3.5% and the “Crystal form (by XRD)” value is “Form I”. Moreover, in data set [2] (setting [7]), the “% Weight loss (by TGA)” value was 0.3% and the “Crystal form (by XRD)” value is on record as “Form A”. Further, the Stability by pressure entry in data set [3] (pressure of about 2-10 tons, as used in the compression stage of tablet preparation) is “stable”.

For the compound `NC(=O)C[S@@+]([O-])C(c1ccccc1)c1ccccc1` [Armodafinil Form IV, 2-[(R)-(diphenylmethyl)sulfinyl]acetamide], the “Crystal form (by XRD) of pressed sample” value in data set [3] (100 mg pressed with 2 tons or 10 tons for 1 min) was “Form I”. Besides, in data set [4], the “Crystal form (by XRD) of ground sample” value is “Form I”. In addition, in data set [5], the “Crystal form (by XRD) of heated sample” value is “Form I”.

With `NC(=O)C[S@@+]([O-])C(c1ccccc1)c1ccccc1` [armodafinil Form I, 2-[(R)-(diphenylmethyl)sulfinyl]acetamide], the “% Weight loss (by TGA)” value is 5.6% in data set [2] (setting [8]), 7.4% in data set [2] (setting [9]), 0.1% in data set [2] (setting [10]) and 0.1% in data set [2] (setting [11]). The “Crystal form (by XRD)” value in data set [2] (setting [8]), in data set [2] (setting [9]), in data set [2] (setting [10]) and in data set [2] (setting [11]) was “Form I” throughout.
